Results as given in ChEMBL document CHEMBL4196108, “5-Aroylindoles Act as Selective Histone Deacetylase 6 Inhibitors Ameliorating Alzheimer's Disease Phenotypes” (J Med Chem, 2018).

What was measured:
[1] = biological target: T1, Protein deacetylase HDAC6 (Homo sapiens, UniProt Q9UBN7); assay: Inhibition of human HDAC6 using RHKKAc peptide as substrate
T1 sequence (Q9UBN7 whole entry): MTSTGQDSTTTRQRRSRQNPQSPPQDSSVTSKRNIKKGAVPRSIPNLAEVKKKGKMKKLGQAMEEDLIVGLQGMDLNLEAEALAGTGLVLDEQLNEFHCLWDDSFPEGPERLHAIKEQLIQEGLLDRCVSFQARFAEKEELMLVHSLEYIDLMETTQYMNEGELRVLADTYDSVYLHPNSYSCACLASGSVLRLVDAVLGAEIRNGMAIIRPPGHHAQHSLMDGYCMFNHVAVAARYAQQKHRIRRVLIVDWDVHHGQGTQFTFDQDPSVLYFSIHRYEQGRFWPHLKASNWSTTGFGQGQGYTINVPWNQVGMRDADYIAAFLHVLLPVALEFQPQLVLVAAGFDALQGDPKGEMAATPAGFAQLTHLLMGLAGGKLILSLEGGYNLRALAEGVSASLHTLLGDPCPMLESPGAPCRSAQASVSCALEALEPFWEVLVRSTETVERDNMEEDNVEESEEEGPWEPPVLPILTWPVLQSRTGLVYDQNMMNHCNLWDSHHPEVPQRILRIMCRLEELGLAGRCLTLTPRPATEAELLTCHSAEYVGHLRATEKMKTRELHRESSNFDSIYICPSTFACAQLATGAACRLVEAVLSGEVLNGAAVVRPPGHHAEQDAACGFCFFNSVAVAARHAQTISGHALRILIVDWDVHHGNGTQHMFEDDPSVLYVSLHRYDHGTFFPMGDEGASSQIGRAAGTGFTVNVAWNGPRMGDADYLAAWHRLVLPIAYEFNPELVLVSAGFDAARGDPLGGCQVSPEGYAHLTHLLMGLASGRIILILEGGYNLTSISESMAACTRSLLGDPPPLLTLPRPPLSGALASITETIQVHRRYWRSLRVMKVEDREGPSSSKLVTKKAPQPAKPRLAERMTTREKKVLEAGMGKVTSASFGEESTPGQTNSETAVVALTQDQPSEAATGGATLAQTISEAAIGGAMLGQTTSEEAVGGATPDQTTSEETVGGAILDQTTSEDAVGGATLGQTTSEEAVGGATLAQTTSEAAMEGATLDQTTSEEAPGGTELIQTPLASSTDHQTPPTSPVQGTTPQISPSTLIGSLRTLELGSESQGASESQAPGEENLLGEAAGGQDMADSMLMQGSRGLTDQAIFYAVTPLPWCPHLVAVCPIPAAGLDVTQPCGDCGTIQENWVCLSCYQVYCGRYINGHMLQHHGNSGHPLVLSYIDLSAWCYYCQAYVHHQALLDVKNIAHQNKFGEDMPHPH

Histone deacetylase 8 = biological target: T2, Histone deacetylase 8 (Homo sapiens, UniProt Q9BY41); assay: Inhibition of human HDAC8 using RHKAcKAc peptide as substrate
T2 sequence (Q9BY41 whole entry): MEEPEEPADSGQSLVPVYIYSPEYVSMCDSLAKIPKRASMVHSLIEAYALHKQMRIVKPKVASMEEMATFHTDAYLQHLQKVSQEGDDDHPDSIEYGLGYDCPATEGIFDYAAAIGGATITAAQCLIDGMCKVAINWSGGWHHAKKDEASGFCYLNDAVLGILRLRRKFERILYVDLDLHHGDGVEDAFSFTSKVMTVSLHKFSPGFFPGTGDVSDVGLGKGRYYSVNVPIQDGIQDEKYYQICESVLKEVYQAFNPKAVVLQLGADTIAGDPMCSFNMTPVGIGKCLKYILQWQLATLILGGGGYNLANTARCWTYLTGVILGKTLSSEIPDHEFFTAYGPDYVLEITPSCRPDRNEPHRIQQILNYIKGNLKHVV

Histone deacetylase 1 = Histone deacetylase 1 (Homo sapiens, UniProt Q13547); assay: Inhibition of human HDAC1 using RHKKAc peptide as substrate
Chain of Histone deacetylase 1 (Q13547 whole entry): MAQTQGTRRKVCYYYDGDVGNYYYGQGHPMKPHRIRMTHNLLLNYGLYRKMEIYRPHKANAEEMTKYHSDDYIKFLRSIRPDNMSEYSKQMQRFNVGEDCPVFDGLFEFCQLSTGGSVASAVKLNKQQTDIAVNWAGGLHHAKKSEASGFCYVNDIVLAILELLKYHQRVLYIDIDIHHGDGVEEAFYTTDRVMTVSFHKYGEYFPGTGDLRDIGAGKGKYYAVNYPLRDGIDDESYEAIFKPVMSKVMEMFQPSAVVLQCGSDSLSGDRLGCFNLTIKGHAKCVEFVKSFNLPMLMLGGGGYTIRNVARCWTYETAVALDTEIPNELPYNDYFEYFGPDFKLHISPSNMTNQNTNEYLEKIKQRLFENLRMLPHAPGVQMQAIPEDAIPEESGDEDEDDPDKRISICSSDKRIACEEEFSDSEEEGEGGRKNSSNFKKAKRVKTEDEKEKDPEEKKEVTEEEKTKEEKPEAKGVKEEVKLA

Homo sapiens [2] = species: Homo sapiens; assay: Selectivity index, ratio of IC50 for human HDAC1 to IC50 for human HDAC6
Homo sapiens [3] = species: Homo sapiens; assay: Selectivity index, ratio of IC50 for human HDAC8 to IC50 for human HDAC6
Homo sapiens [4] = species: Homo sapiens; assay: Selectivity index, ratio of IC50 for human HDAC2 to IC50 for human HDAC6
Histone deacetylase 3 = Histone deacetylase 3 (Homo sapiens, UniProt O15379)
Chain of Histone deacetylase 3 (O15379 whole entry): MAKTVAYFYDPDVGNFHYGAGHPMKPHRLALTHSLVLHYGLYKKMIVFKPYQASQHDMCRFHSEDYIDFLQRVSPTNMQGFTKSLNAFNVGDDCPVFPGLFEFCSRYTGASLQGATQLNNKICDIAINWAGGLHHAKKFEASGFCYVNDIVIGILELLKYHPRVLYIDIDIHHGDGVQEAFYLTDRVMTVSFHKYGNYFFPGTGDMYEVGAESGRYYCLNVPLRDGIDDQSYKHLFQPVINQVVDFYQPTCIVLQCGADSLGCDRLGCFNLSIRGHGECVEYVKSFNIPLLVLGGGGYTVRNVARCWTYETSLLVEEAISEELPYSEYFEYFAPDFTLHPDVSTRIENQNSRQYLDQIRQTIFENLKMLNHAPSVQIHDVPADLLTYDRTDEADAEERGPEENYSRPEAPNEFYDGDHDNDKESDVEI

[5] = biological target: T3, Polyamine deacetylase HDAC10 (Homo sapiens, UniProt Q969S8); assay: Inhibition of human HDAC10 using RHKKAc peptide as substrate
T3 sequence (Q969S8 whole entry): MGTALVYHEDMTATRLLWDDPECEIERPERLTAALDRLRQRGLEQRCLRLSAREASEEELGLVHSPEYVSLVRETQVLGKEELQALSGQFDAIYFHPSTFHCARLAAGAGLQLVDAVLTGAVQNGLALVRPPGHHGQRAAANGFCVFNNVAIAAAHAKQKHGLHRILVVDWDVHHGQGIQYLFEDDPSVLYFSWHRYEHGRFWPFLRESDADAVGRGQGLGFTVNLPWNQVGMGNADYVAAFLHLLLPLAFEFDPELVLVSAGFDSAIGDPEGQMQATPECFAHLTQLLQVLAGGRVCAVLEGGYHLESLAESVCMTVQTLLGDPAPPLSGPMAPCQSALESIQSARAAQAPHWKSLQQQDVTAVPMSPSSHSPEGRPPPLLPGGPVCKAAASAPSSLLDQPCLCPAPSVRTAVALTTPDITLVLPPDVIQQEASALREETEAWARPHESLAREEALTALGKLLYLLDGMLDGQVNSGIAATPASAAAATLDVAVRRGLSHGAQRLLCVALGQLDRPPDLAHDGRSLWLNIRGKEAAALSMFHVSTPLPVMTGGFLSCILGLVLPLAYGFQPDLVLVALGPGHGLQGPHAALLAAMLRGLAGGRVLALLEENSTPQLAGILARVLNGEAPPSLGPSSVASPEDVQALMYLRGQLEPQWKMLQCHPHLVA

Homo sapiens [6] = species: Homo sapiens; assay: Selectivity index, ratio of IC50 for human HDAC3 to IC50 for human HDAC6

SMILES | IC50 [1] | IC50 (Histone deacetylase 8) | IC50 (Histone deacetylase 1) | Ratio IC50 (Homo sapiens [2]) | Ratio IC50 (Homo sapiens [3]) | Ratio IC50 (Homo sapiens [4]) | IC50 (Histone deacetylase 3) | IC50 [5] | Ratio IC50 (Homo sapiens [6])
O=C(NO)c1ccc(Cn2ccc3cc(C(=O)c4ccc(Cl)cc4)ccc32)cc1 | 6.73 nM | 1060 nM | 4780 nM | 710 | 158 | 312 | 6620 nM | > 100000 nM | 984
COc1ccc(C(=O)c2ccc3c(ccn3Cc3ccc(C(=O)NO)cc3)c2)cc1 | 3.92 nM | 646 nM | 2190 nM | 559 | 165 | 145 | 4150 nM | 59800 nM | 1060
O=C(NO)c1ccc(Cn2ccc3cc(C(=O)c4ccc(F)cc4)ccc32)cc1 | 9.25 nM | 1240 nM | 3300 nM | 357 | 134 | 552 | 4400 nM | > 100000 nM | 476
